The source of these data is ChEMBL document CHEMBL1201862, “PubChem BioAssay data set” (2004).

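Tested at 5 concentrations; 48 h exposure; 96-well plates; endpoints linearly interpolated, else capped at highest concentration. The concentration for 50% growth inhibition is given as GI50.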 Calls of active or inactive are those of the source. Rule as the data show it: active = GI50 up to about 1.1 µM and inactive = higher.

Some test systems named below: CCRF-CEM; HCC 2998; HCT-116; HCT-15; IGROV-1; K562; KM12; M14; MOLT-4; OVCAR-3; OVCAR-4; OVCAR-8; SK-MEL-28; SK-MEL-2; SK-MEL-5; SK-OV-3; SNB-19; SNB-75; SW-620; UO-31.
Holding throughout (assay): NCI-60 cell line screen, 48 h

As for `COc1cc2cc(C(=O)N3CC(CCl)c4ccc(NO)cc43)[nH]c2c(OC)c1OC` (centres undefined), the GI50 in the assay on CCRF-CEM was 0.137 µM (active); with HCC 2998, 0.0977 µM (active); in the assay with HCT-116, 0.253 µM (active); in the assay with HCT-15, 0.243 µM; with IGROV-1 it was 0.0968 µM (active); in the assay with K562, 0.139 µM (active). Further, the GI50 was 0.155 µM (active) with KM12; 0.188 µM (active) in the assay with M14; 0.184 µM (active) in the assay on MOLT-4; 0.257 µM (active) in the assay on OVCAR-3; 0.177 µM (active) with OVCAR-4; 0.184 µM (active) with OVCAR-8. The GI50 in the assay on SK-MEL-28 was 0.245 µM (active); in the assay on SK-MEL-2, 0.126 µM (active); in the assay on SK-MEL-5 it was 0.0984 µM (active); in the assay on SK-OV-3, 0.284 µM (active); with SNB-19, 0.264 µM (active); with SNB-75, 0.177 µM (active). The GI50 with SW-620 is 0.166 µM (active); in the assay on UO-31, 0.0325 µM (active).

As to `CC1CC(C[N+](=O)[O-])CC2(C1)OCCO2` (centres undefined), the GI50 with CCRF-CEM is > 100 µM (inactive); with HCC 2998, > 100 µM (inactive); in the assay with HCT-116 it was > 100 µM (inactive); in the assay on HCT-15, greater than 100 µM; in the assay with IGROV-1 it was > 100 µM (inactive); in the assay on K562 it was > 100 µM (inactive). In addition, the GI50 with KM12, in the assay with M14, with MOLT-4, in the assay with OVCAR-3, with OVCAR-4 and in the assay with OVCAR-8 was > 100 µM (inactive) in each case. The GI50 in the assay with SK-MEL-28, with SK-MEL-2, with SK-MEL-5, in the assay with SK-OV-3, in the assay on SNB-19 and in the assay on SNB-75 was > 100 µM (inactive) throughout. Moreover, the GI50 in the assay with SW-620 and in the assay on UO-31 was > 100 µM (inactive) each time.

Take `CCC(=O)NC(Nc1cccc(F)c1)(C(F)(F)F)C(F)(F)F`: the GI50 is 60 µM (inactive) in the assay with CCRF-CEM; > 100 µM (inactive) in the assay on HCC 2998; > 100 µM (inactive) with HCT-116; greater than 100 µM with HCT-15; > 100 µM (inactive) in the assay with IGROV-1; > 100 µM (inactive) in the assay with K562. Moreover, the GI50 is > 100 µM (inactive) in the assay with KM12; > 100 µM (inactive) with M14; 57 µM (inactive) with MOLT-4; > 100 µM (inactive) in the assay with OVCAR-3; > 100 µM (inactive) with OVCAR-4; > 100 µM (inactive) in the assay on OVCAR-8. Moreover, the GI50 was > 100 µM (inactive) in the assay with SK-MEL-28; > 100 µM (inactive) with SK-MEL-2; 78.7 µM (inactive) in the assay on SK-MEL-5; > 100 µM (inactive) with SK-OV-3; > 100 µM (inactive) in the assay with SNB-19; > 100 µM (inactive) in the assay on SNB-75. The GI50 was > 100 µM (inactive) in the assay with SW-620 and 70.1 µM (inactive) in the assay with UO-31.

Regarding `O=C1CSC(/C=C/c2ccccc2)N1c1nc2cc3sc(N4C(=O)CSC4/C=C/c4ccccc4)nc3cc2s1` (centres undefined), the GI50 is 3.53 µM (inactive) in the assay on CCRF-CEM; 43.8 µM (inactive) in the assay on HCC 2998; 27.7 µM (inactive) in the assay with HCT-116; greater than 34.1 µM in the assay on HCT-15; > 62.1 µM (inactive) with IGROV-1; 42.4 µM (inactive) with K562. For the same compound, the GI50 in the assay with KM12 was 48.9 µM (inactive); in the assay with M14, > 100 µM (inactive); with MOLT-4 it was 5.9 µM (inactive); with OVCAR-3, 38.8 µM (inactive); in the assay with OVCAR-4, 65.3 µM (inactive); in the assay on OVCAR-8, > 100 µM (inactive). Also, the GI50 is > 58.7 µM (inactive) in the assay on SK-MEL-28; 33.6 µM (inactive) with SK-MEL-2; > 46.5 µM (inactive) in the assay on SK-MEL-5; > 100 µM (inactive) in the assay with SK-OV-3; > 84.5 µM (inactive) with SNB-19; 73.8 µM (inactive) with SNB-75. In addition, the GI50 with SW-620 is 9.46 µM (inactive); in the assay on UO-31, > 51.5 µM (inactive).

With `O=C1NC(O)CCN1C1OC(CO)C(O)C1O` (centres undefined), the GI50 was > 250 µM (inactive) in the assay with CCRF-CEM; > 250 µM (inactive) in the assay on HCC 2998; > 141 µM (inactive) in the assay on HCT-116; greater than 250 µM in the assay with HCT-15; > 250 µM (inactive) with IGROV-1; > 250 µM (inactive) with K562. For the same compound, the GI50 in the assay on KM12, in the assay on MOLT-4, in the assay on OVCAR-3, in the assay with OVCAR-4, with OVCAR-8 and with SK-MEL-28 was > 250 µM (inactive) throughout. The GI50 is > 158 µM (inactive) in the assay on SK-MEL-2; > 66.4 µM (inactive) in the assay with SK-MEL-5; > 250 µM (inactive) with SK-OV-3; > 250 µM (inactive) in the assay with SNB-19; > 250 µM (inactive) with SNB-75; > 250 µM (inactive) with SW-620. Further, the GI50 in the assay with UO-31 was > 250 µM (inactive).

For `Cc1ccc(/N=N/C(C(=O)c2ccccc2)C(=O)c2ccccc2)cc1`, the GI50 was 10.9 µM (inactive) in the assay on CCRF-CEM; 38.3 µM (inactive) in the assay on HCC 2998; 14.9 µM (inactive) with HCT-116; 14.2 µM with HCT-15; 31.2 µM (inactive) in the assay on IGROV-1; 17.7 µM (inactive) in the assay with K562. Besides, the GI50 in the assay with KM12 is 36.1 µM (inactive); in the assay on M14 it was 15.7 µM (inactive); in the assay with MOLT-4, 10.2 µM (inactive); in the assay with OVCAR-3, 29.1 µM (inactive); with OVCAR-4 it was 13.1 µM (inactive); with OVCAR-8, 28.6 µM (inactive). In addition, the GI50 is 31.6 µM (inactive) in the assay on SK-MEL-28; 19.5 µM (inactive) in the assay on SK-MEL-2; 17.7 µM (inactive) with SK-MEL-5; 47.1 µM (inactive) with SK-OV-3; 19 µM (inactive) in the assay on SNB-19; 20.6 µM (inactive) in the assay on SNB-75. The GI50 was 29.1 µM (inactive) in the assay with SW-620 and 14.8 µM (inactive) in the assay with UO-31.

With `O=C(OCCOC(=O)c1ccc2c(c1)C1(SCCS1)c1ccccc1-2)c1ccc2c(c1)C1(SCCS1)c1ccccc1-2`, the GI50 was > 100 µM (inactive) with CCRF-CEM; > 100 µM (inactive) in the assay on HCC 2998; > 100 µM (inactive) in the assay with HCT-116; greater than 100 µM in the assay on HCT-15; > 100 µM (inactive) in the assay with IGROV-1; > 100 µM (inactive) with K562. For the same compound, the GI50 with KM12, with M14, with MOLT-4, in the assay on OVCAR-3, in the assay on OVCAR-4 and with OVCAR-8 was > 100 µM (inactive) each time. Besides, the GI50 in the assay on SK-MEL-28, in the assay on SK-MEL-2, in the assay with SK-MEL-5, with SK-OV-3, in the assay with SNB-19 and with SNB-75 was > 100 µM (inactive) in each case. The GI50 in the assay with SW-620 and with UO-31 was > 100 µM (inactive) each time.

With `COC(=O)C(F)C(Br)C(=O)OC` (centres undefined), the GI50 is 0.684 µM (active) with CCRF-CEM; 8 µM (inactive) with HCC 2998; 2.74 µM (inactive) in the assay on HCT-116; 1.82 µM in the assay on HCT-15; 2.69 µM (inactive) with IGROV-1; 1.63 µM (inactive) with K562. The GI50 with KM12 is 20.3 µM (inactive); in the assay on M14, 5.79 µM (inactive); in the assay on MOLT-4, 0.9 µM (active); in the assay on OVCAR-3, 2.11 µM (inactive); in the assay on OVCAR-4 it was 3.39 µM (inactive); in the assay with OVCAR-8 it was 3.63 µM (inactive). Besides, the GI50 in the assay on SK-MEL-28 is 18 µM (inactive); in the assay on SK-MEL-2, 16.1 µM (inactive); in the assay on SK-MEL-5, 18.5 µM (inactive); with SK-OV-3 it was 18.5 µM (inactive); in the assay with SNB-19 it was 30.7 µM (inactive); in the assay with SNB-75, 12.3 µM (inactive). The GI50 in the assay with SW-620 was 1.95 µM (inactive); with UO-31, 1.89 µM (inactive).

Take `CC1CC2=C(S(=O)(=O)c3ccccc3)CC(S(=O)(=O)c3ccccc3)(S(=O)(=O)c3ccccc3)CC21` (centres undefined): the GI50 with CCRF-CEM was 27.4 µM (inactive); in the assay with HCC 2998, > 100 µM (inactive); with HCT-116, 21.9 µM (inactive); in the assay with HCT-15, greater than 100 µM; with IGROV-1 it was > 100 µM (inactive); in the assay on K562, 38.7 µM (inactive). Further, the GI50 in the assay on KM12, in the assay on M14, in the assay with MOLT-4, in the assay on OVCAR-3, in the assay on OVCAR-4 and with OVCAR-8 was > 100 µM (inactive) each time. Moreover, the GI50 in the assay with SK-MEL-28 is > 100 µM (inactive); in the assay with SK-MEL-2, > 100 µM (inactive); in the assay on SK-MEL-5, > 100 µM (inactive); in the assay on SK-OV-3, > 100 µM (inactive); in the assay on SNB-19, > 100 µM (inactive); with SNB-75, 25.1 µM (inactive). The GI50 in the assay with SW-620 and in the assay with UO-31 was > 100 µM (inactive) throughout.

`Cc1ccc(OCC2OC(n3cnc4c(Cl)nc(N)nc43)CC2Oc2ccc(C)cc2)cc1` (centres undefined): the GI50 in the assay with CCRF-CEM was > 74.6 µM (inactive); in the assay on HCC 2998, 24.4 µM (inactive); in the assay with HCT-116, 47.5 µM (inactive); in the assay on HCT-15, 31 µM; in the assay on IGROV-1 it was 19.4 µM (inactive); in the assay on K562, 29.4 µM (inactive). In addition, the GI50 in the assay with KM12 is > 51.8 µM (inactive); with M14, 9.27 µM (inactive); with MOLT-4, 25.2 µM (inactive); in the assay with OVCAR-3 it was 21.6 µM (inactive); with OVCAR-4, 21.4 µM (inactive); with OVCAR-8 it was 31.9 µM (inactive). For the same compound, the GI50 with SK-MEL-28 is > 51.4 µM (inactive); with SK-MEL-2, > 38.1 µM (inactive); in the assay on SK-MEL-5, 30.9 µM (inactive); in the assay on SK-OV-3, > 69 µM (inactive); in the assay with SNB-19, 38 µM (inactive); with SNB-75 it was > 70.8 µM (inactive). For the same compound, the results for the GI50 in the assay with SW-620 and in the assay on UO-31 were > 55.3 µM (inactive) and 4.58 µM (inactive), respectively.
